In patent US9598420B2, “Benzodiazepine bromodomain inhibitor” (GlaxoSmithKline LLC, priority 2009, dated 2017):
Counter-ions that a name gives are not always drawn.

Tested on: LPS induced IL-6 secretion from whole blood
Experiment: Measurement of LPS Induced IL-6 Secretion from Whole Blood
Assay type: cell-based
Conditions: LPS 200 ng/ml, 24 hours, immunoassay, read-out: pIC50 (IL-6 levels) (converted)
Protocol: Activation of monocytic cells by agonists of toll-like receptors such as bacterial lipopolysaccharide (LPS) results in production of key inflammatory mediators including IL-6. Such pathways are widely considered to be central to the pathophysiology of a range of auto-immune and inflammatory disorders.
After further incubation for 24 hours at 37 degrees, 140 ul of PBS are added to each well. The plates are sealed, shaken for 10 minutes and then centrifuged (2500 rpm×10 min). 100 ul of the supernatant are removed and IL-6 levels assayed by immunoassay (typically by MesoScale Discovery technology) either immediately or following storage at −20 degrees.

Structure (SMILES)	IC50
COc1ccc2c(c1)C(c1ccc(Cl)cc1)=NC(CC(=O)NCCc1ccccc1)c1nnc(C)n1-2 (stereo not shown) [Example 2, 2-[6-(4-chlorophenyl)-1-methyl-8-(methyloxy)-4H-[1,2,4]triazolo[4,3-a][1,4]benzodiazepin-4-yl]-N-(2-phenylethyl)acetamide]	≤ 10 µM
COc1ccc2c(c1)C(c1ccc(Cl)cc1)=NC(CC(=O)N1CCCCC1)c1nnc(C)n1-2 (stereo not shown) [Example 3, 6-(4-chlorophenyl)-1-methyl-8-(methyloxy)-4-[2-oxo-2-(1-piperidinyl)ethyl]-4H-[1,2,4]triazolo[4,3-a][1,4]benzodiazepine]	≤ 10 µM
COc1ccc2c(c1)C(c1ccc(Cl)cc1)=NC(CC(=O)NCc1ccco1)c1nnc(C)n1-2 (stereo not shown) [Example 4, 2-[6-(4-chlorophenyl)-1-methyl-8-(methyloxy)-4H-[1,2,4]triazolo[4,3-a][1,4]benzodiazepin-4-yl]-N-(2-furanylmethyl)acetamide]	≤ 10 µM
COc1ccc2c(c1)C(c1ccc(Cl)cc1)=N[C@@H](CC(=O)Nc1ccc(F)cc1)c1nnc(C)n1-2 [Example 11, 2-[(4S)-6-(4-chlorophenyl)-1-methyl-8-(methyloxy)-4H-[1,2,4]triazolo[4,3-a][1,4]benzodiazepin-4-yl]-N-(4-fluorophenyl)acetamide]	≤ 10 µM
COc1ccc2c(c1)C(c1ccc(Cl)cc1)=N[C@@H](CC(=O)Nc1cccnc1)c1nnc(C)n1-2 [Example 13, 2-[(4S)-6-(4-chlorophenyl)-1-methyl-8-(methyloxy)-4H-[1,2,4]triazolo[4,3-a][1,4]benzodiazepin-4-yl]-N-3-pyridinylacetamide]	≤ 10 µM
COc1ccc2c(c1)C(c1ccc(Cl)cc1)=N[C@@H](CC(=O)N[C@@H](C)c1ccccc1)c1nnc(C)n1-2 [Example 17, 2-[(4S)-6-(4-chlorophenyl)-1-methyl-8-(methyloxy)-4H-[1,2,4]triazolo[4,3-a][1,4]benzodiazepin-4-yl]-N-[(1S)-1-phenylethyl]acetamide]	≤ 10 µM
COc1ccc2c(c1)C(c1ccc(Cl)cc1)=NC(CC(=O)NCCN(C)C)c1nnc(C)n1-2 (stereo not shown) [Example 26, 2-[6-(4-chlorophenyl)-1-methyl-8-(methyloxy)-4H-[1,2,4]triazolo[4,3-a][1,4]benzodiazepin-4-yl]-N-[2-(dimethylamino)ethyl]acetamide]	≤ 10 µM
Cc1nnc2n1-c1ccc(OS(C)(=O)=O)cc1C(c1ccc(Cl)cc1)=N[C@H]2CC(=O)Nc1ccc(F)cc1 [Example 31, (4S)-6-(4-Chlorophenyl)-4-{2-[(4-fluorophenyl)amino]-2-oxoethyl}-1-methyl-4H-[1,2,4]triazolo[4,3-a][1,4]benzodiazepin-8-yl methanesulfonate]	≤ 10 µM
COC(=O)C[C@@H]1N=C(c2ccc(Cl)cc2)c2cc(OC)ccc2-n2c(C)nnc21 [Example 34, Methyl [(4S)-6-(4-chlorophenyl)-1-methyl-8-(methyloxy)-4H-[1,2,4]triazolo[4,3-a][1,4]benzodiazepin-4-yl]acetate]	≤ 10 µM
CNCCNC(=O)C[C@@H]1N=C(c2ccc(Cl)cc2)c2cc(OC)ccc2-n2c(C)nnc21 [Example 38, 2-[(4S)-6-(4-Chlorophenyl)-1-methyl-8-(methyloxy)-4H-[1,2,4]triazolo[4,3-a][1,4]benzodiazepin-4-yl]-N-[2-(methylamino)ethyl]acetamide trifluoroacetic acid salt]	≤ 10 µM
COc1ccc2c(c1)C(c1ccc(Cl)cc1)=N[C@@H](CC(=O)NC1CCNCC1)c1nnc(C)n1-2 [Example 39, 2-[(4S)-6-(4-Chlorophenyl)-1-methyl-8-(methyloxy)-4H-[1,2,4]triazolo[4,3-a][1,4]benzodiazepin-4-yl]-N-4-piperidinylacetamide trifluoroacetic acid salt]	≤ 10 µM
CNC1CCN(C(=O)C[C@@H]2N=C(c3ccc(Cl)cc3)c3cc(OC)ccc3-n3c(C)nnc32)CC1 [Example 40, 1-{[(4S)-6-(4-chlorophenyl)-1-methyl-8-(methyloxy)-4H-[1,2,4]triazolo[4,3-a][1,4]benzodiazepin-4-yl]acetyl}-N-methyl-4-piperidinamine formic acid salt]	≤ 10 µM
COc1ccc2c(c1)C(c1ccc(Cl)cc1)=N[C@@H](CC(=O)N1CCC(N)CC1)c1nnc(C)n1-2 [Example 41, (S)-1-(4-aminopiperidin-1-yl)-2-(6-(4-chlorophenyl)-8-methoxy-1-methyl-4H-benzo[f][1,2,4]triazolo[4,3-a][1,4]diazepin-4-yl)ethanone]	≤ 10 µM
COc1ccc2c(c1)C(c1ccc(Cl)cc1)=N[C@@H](CC(=O)NC1CNC1)c1nnc(C)n1-2 [Example 42, (S)-N-(azetidin-3-yl)-2-(6-(4-chlorophenyl)-8-methoxy-1-methyl-4H-benzo[f][1,2,4]triazolo[4,3-a][1,4]diazepin-4-yl)acetamide]	≤ 10 µM
COc1ccc2c(c1)C(c1ccc(Cl)cc1)=N[C@@H](CC(=O)N1CC(N)C1)c1nnc(C)n1-2 [Example 43, (S)-1-(3-aminoazetidin-1-yl)-2-(6-(4-chlorophenyl)-8-methoxy-1-methyl-4H-benzo[f][1,2,4]triazolo[4,3-a][1,4]diazepin-4-yl)ethanone]	≤ 10 µM
COc1ccc2c(c1)C(c1ccc(Cl)cc1)=N[C@@H](CC(=O)N1CCC(O)CC1)c1nnc(C)n1-2 [Example 44, (S)-2-(6-(4-chlorophenyl)-8-methoxy-1-methyl-4H-benzo[f][1,2,4]triazolo[4,3-a][1,4]diazepin-4-yl)-1-(4-hydroxypiperidin-1-yl)ethanone]	≤ 10 µM
COc1ccc2c(c1)C(c1ccc(Cl)cc1)=N[C@@H](CC(=O)NCCN1CCOCC1)c1nnc(C)n1-2 [Example 45, 2-[(4S)-6-(4-chlorophenyl)-1-methyl-8-(methyloxy)-4H-[1,2,4]triazolo[4,3-a][1,4]benzodiazepin-4-yl]-N-[2-(4-morpholinyl)ethyl]acetamide]	≤ 10 µM

Structure (SMILES)	IC50
COc1ccc2c(c1)C(c1ccc(Cl)cc1)=N[C@@H](CC(=O)NCCc1c[nH]cn1)c1nnc(C)n1-2 [Example 46, 2-[(4S)-6-(4-chlorophenyl)-1-methyl-8-(methyloxy)-4H-[1,2,4]triazolo[4,3-a][1,4]benzodiazepin-4-yl]-N-[2-(1H-imidazol-4-yl)ethyl]acetamide]	≤ 10 µM
COc1ccc2c(c1)C(c1ccc(Cl)cc1)=N[C@@H](CC(=O)OC(C)(C)C)c1nnc(C)n1-2 [Example 47, (S)-tert-butyl-2-(6-(4-chlorophenyl)-8-methoxy-1-methyl-4H-benzo[f][1,2,4]triazolo[4,3-a][1,4]diazepin-4-yl)acetate]	≤ 10 µM
COc1ccc2c(c1)C(c1ccc(Cl)cc1)=N[C@@H](CC(=O)OC1CCNCC1)c1nnc(C)n1-2 [Example 48, (S)-piperidin-4-yl-2-(6-(4-chlorophenyl)-8-methoxy-1-methyl-4H-benzo[f][1,2,4]triazolo[4,3-a][1,4]diazepin-4-yl)acetate]	≤ 10 µM
COc1ccc2c(c1)C(c1ccc(Cl)cc1)=N[C@@H](CC(=O)NCCN(C)C)c1nnc(C)n1-2 [Example 50, 2-[(4S)-6-(4-chlorophenyl)-1-methyl-8-(methyloxy)-4H-[1,2,4]triazolo[4,3-a][1,4]benzodiazepin-4-yl]-N-[2-(dimethylamino)ethyl]acetamide formic acid salt]	≤ 10 µM
COc1ccc2c(c1)C(c1ccc(Cl)cc1)=N[C@@H](CC(=O)NCCCN(C)C)c1nnc(C)n1-2 [Example 51, 2-[(4S)-6-(4-chlorophenyl)-1-methyl-8-(methyloxy)-4H-[1,2,4]triazolo[4,3-a][1,4]benzodiazepin-4-yl]-N-[3-(dimethylamino)propyl]acetamide formic acid salt]	≤ 10 µM
COc1ccc2c(c1)C(c1ccc(Cl)cc1)=N[C@@H](CC(=O)Nc1ccncn1)c1nnc(C)n1-2 [Example 54, 2-[(4S)-6-(4-chlorophenyl)-1-methyl-8-(methyloxy)-4H-[1,2,4]triazolo[4,3-a][1,4]benzodiazepin-4-yl]-N-4-pyrimidinylacetamide]	≤ 10 µM
COc1ccc2c(c1)C(c1ccc(Cl)cc1)=N[C@@H](CC(=O)Nc1cc(C)on1)c1nnc(C)n1-2 [Example 55, 2-[(4S)-6-(4-chlorophenyl)-1-methyl-8-(methyloxy)-4H-[1,2,4]triazolo[4,3-a][1,4]benzodiazepin-4-yl]-N-(5-methyl-3-isoxazolyl)acetamide]	≤ 10 µM
COc1ccc2c(c1)C(c1ccc(Cl)cc1)=N[C@@H](CC(=O)NC1CCOCC1)c1nnc(C)n1-2 [Example 56, 2-[(4S)-6-(4-chlorophenyl)-1-methyl-8-(methyloxy)-4H-[1,2,4]triazolo[4,3-a][1,4]benzodiazepin-4-yl]-N-(tetrahydro-2H-pyran-4-yl)acetamide]	≤ 10 µM
COc1ccc(COC(=O)C[C@@H]2N=C(c3ccc(Cl)cc3)c3cc(OC)ccc3-n3c(C)nnc32)cc1 [Example 58]	≤ 10 µM
COc1ccc2c(c1)C(c1ccc(Cl)cc1)=N[C@@H](CC(=O)OCC(C)C)c1nnc(C)n1-2 [Example 59]	≤ 10 µM
COc1ccc2c(c1)C(c1ccc(Cl)cc1)=N[C@@H](CC(=O)OC1CCOCC1)c1nnc(C)n1-2 [Example 60]	≤ 10 µM
COc1ccc2c(c1)C(c1ccc(Cl)cc1)=NC(CC(=O)Nc1ccncc1)c1nnc(C)n1-2 (stereo not shown) [Example 61]	≤ 10 µM
COc1ccc2c(c1)C(c1ccc(Cl)cc1)=NC(CC(=O)NCC1CC1)c1nnc(C)n1-2 (stereo not shown) [Example 62]	≤ 10 µM
Cc1nnc2n1-c1ccccc1C(c1ccc(Cl)cc1)=NC2CC(=O)Nc1ccncc1 (stereo not shown) [Example 63]	≤ 10 µM
COc1ccc2c(c1)C(c1ccc(Cl)cc1)=NC(CC(=O)Nc1nccs1)c1nnc(C)n1-2 (stereo not shown) [Example 64]	≤ 10 µM
COc1ccc2c(c1)C(c1ccc(Cl)cc1)=NC(CC(=O)Nc1ccc(F)cc1)c1nnc(C)n1-2 (stereo not shown) [Example 67]	≤ 10 µM
CCNC(=O)C[C@@H]1N=C(c2ccc(Cl)cc2)c2ccc(OC)cc2-n2c(C)nnc21 [Example 69]	≤ 10 µM
